Laboratory results from patent US11377441B2, “Covalent inhibitors of KRAS” (Araxes Pharma LLC, priority 2017, dated 2022).

target: T1, KRAS G12C 1-169, his-tagged protein, GDP-loaded (Homo sapiens, UniProt P01116, G12C); assay: Biochemical assay: covalent modification of KRAS G12C measured by mass spectrometry (RapidFire/TOF or Q-Exactive); assay type: binding; conditions: covalent binding to (modification of) KRAS G12C after a ten minute incubation period
T1 construct: KRAS G12C 1-169, his-tagged protein, GDP-loaded
Method in brief: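 GDP-loaded KRAS G12C 1-169 (his-tagged) at 2 μM or 0.5 μM in 20 mM Hepes, 150 mM NaCl, 1 mM MgCl2, incubated with compound at 100, 30 or 10 μM at room temperature for 10 min, 30 min, 2 h or 24 h, then quenched with formic acid. Intact-protein LC-MS, deconvolved; percent modification from modified versus unmodified protein.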

`C=CC(=O)N1C[C@H](C)N(c2nc(N3CC(N(C)C)C3)nc3c(F)c(-c4c(C)ccc5[nH]nc(C)c45)c(C(F)(F)F)cc23)C[C@H]1C` [Compound 192, 1-((2R,5S)-4-(7-(3,5-dimethyl-1H-indazol-4-yl)-2-(3-(dimethylamino)azetidin-1-yl)-8-fluoro-6-(trifluoromethyl)quina-zolin-4-yl)-2,5-dimethylpiperazin-1-yl)prop-2-en-1-one] was tested. Which Binding % did it give?
Its Binding % is “+++ (+++ indicates binding activity greater than 80%)”.

For `C=CC(=O)N1C[C@H](C)N(c2nc(N3CC(N(C)C)C3)nc3c(F)c(-c4c(C)ccc5[nH]nc(C6CC6)c45)c(C(F)(F)F)cc23)C[C@H]1C` [Compound 193, 1-((2R,5S)-4-(7-(3-cyclopropyl-5-methyl-1H-indazol-4-yl)-2-(3-(dimethylamino)azetidin-1-yl)-8-fluoro-6-(trifluoromethyl)quina-zolin-4-yl)-2,5-dimethylpiperazin-1-yl)prop-2-en-1-one], which Binding % is on record?
Its Binding % is “+++ (+++ indicates binding activity greater than 80%)”.

For `C=CS(=O)(=O)N1C[C@H](C)N(c2nc(N3CC(N(C)C)C3)nc3c(F)c(-c4c(C)ccc5[nH]nc(C)c45)c(Cl)cc23)C[C@H]1C` [Compound 194, 1-(6-chloro-7-(3,5-dimethyl-1H-indazol-4-yl)-4-((2S,5R)-2,5-dimethyl-4-(vinylsulfonyl)piperazin-1-yl)-8-fluoroquinazolin-2-yl)-N,N-dimethylazetidin-3-amine], which Binding % is on record?
The Binding % was “+ (+ indicates binding activity greater than 0% and up to 50%)”.

With `C=CC(=O)N1C[C@H](C)N(c2nc(N3CC(N(C)C)C3)nc3c(F)c(-c4c(C)ccc5c(Cl)nn(C)c45)c(Cl)cc23)C[C@H]1C` [Compound 195, 1-((2R,5S)-4-(6-chloro-7-(3-chloro-1,6-dimethyl-1H-indazol-7-yl)-2-(3-(dimethylamino)azetidin-1-yl)-8-fluoroquinazolin-4-yl)-2,5-dimethylpiperazin-1-yl)prop-2-en-1-one] as the molecule, how does the Binding % read?
Its Binding % is “+ (+ indicates binding activity greater than 0% and up to 50%)”.

How did the Binding % turn out when `C=CC(=O)N1C[C@H](C)N(c2nc(OC[C@H]3CCN(C)C3)nc3c(F)c(-c4c(C)ccc5cnn(C)c45)c(Cl)cc23)C[C@H]1C` [Compound 196, 1-((2R,5S)-4-(6-chloro-7-(1,6-dimethyl-1H-indazol-7-yl)-8-fluoro-2-(((S)-1-methylpyrrolidin-3-yl)methoxy)quinazolin-4-yl)-2,5-dimethylpiperazin-1-yl)prop-2-en-1-one] was run?
Its Binding % is “++ (++ indicates binding activity from 50 to 80%)”.

`C=CC(=O)N1C[C@H](C)N(c2nc(OC[C@@H]3C[C@H](OC)CN3C)nc3c(F)c(-c4c(C)ccc5cnn(C)c45)c(Cl)cc23)C[C@H]1C` [Compound 197, 1-((2R,5S)-4-(6-chloro-7-(1,6-dimethyl-1H-indazol-7-yl)-8-fluoro-2-(((2S,4S)-4-methoxy-1-methylpyrrolidin-2-yl)methoxy)quinazolin-4-yl)-2,5-dimethylpiperazin-1-yl)prop-2-en-1-one] was tested. Which Binding % did it give?
The Binding % was “+++ (+++ indicates binding activity greater than 80%)”.

How did the Binding % turn out when `C=CC(=O)N1C[C@H](C)N(c2nc(OC[C@H]3CCN(C)C3)nc3c(F)c(-c4c(C)ccc5cnn(C6CC6)c45)c(Cl)cc23)C[C@H]1C` [Compound 198, 1-((2R,5S)-4-(6-chloro-7-(1-cyclopropyl-6-methyl-1H-indazol-7-yl)-8-fluoro-2-(((S)-1-methylpyrrolidin-3-yl)methoxy)quinazolin-4-yl)-2,5-dimethylpiperazin-1-yl)prop-2-en-1-one] was run?
Its Binding % is “++ (++ indicates binding activity from 50 to 80%)”.

Which Binding % does the source give for `C=CC(=O)N1C[C@H](C)N(c2nc(OC[C@@H]3C[C@H](OC)CN3C)nc3c(F)c(-c4c(C)ccc5cnn(C6CC6)c45)c(Cl)cc23)C[C@H]1C` [Compound 199, 1-((2R,5S)-4-(6-chloro-7-(1-cyclopropyl-6-methyl-1H-indazol-7-yl)-8-fluoro-2-(((2S,4S)-4-methoxy-1-methylpyrrolidin-2-yl)methoxy)quinazolin-4-yl)-2,5-dimethylpiperazin-1-yl)prop-2-en-1-one] here?
The Binding % was “+++ (+++ indicates binding activity greater than 80%)”.

How did the Binding % turn out when `C=CC(=O)N1C[C@H](C)N(c2nc(N3CC(N(C)C)C3)nc3c(F)c(-c4c(F)ccc5cnn(C6CC6)c45)c(Cl)cc23)C[C@H]1C` [Compound 200, 1-((2R,5S)-4-(6-chloro-7-(1-cyclopropyl-6-fluoro-1H-indazol-7-yl)-2-(3-(dimethylamino)azetidin-1-yl)-8-fluoroquinazolin-4-yl)-2,5-dimethylpiperazin-1-yl)prop-2-en-1-one] was run?
Its Binding % is “+ (+ indicates binding activity greater than 0% and up to 50%)”.

For `C=CC(=O)N1C[C@H](C)N(c2nc(N3CC(N(C)C)C3)nc3c(F)c(-c4c(C)ccc5ccn(C)c45)c(Cl)cc23)C[C@H]1C` [Compound 202, 1-((2R,5S)-4-((S)-6-chloro-7-(1,6-dimethyl-1H-indol-7-yl)-2-(3-(dimethylamino)azetidin-1-yl)-8-fluoroquinazolin-4-yl)-2,5-dimethylpiperazin-1-yl)prop-2-en-1-one], which Binding % is on record?
The Binding % was “+ (+ indicates binding activity greater than 0% and up to 50%)”.

`C=CC(=O)N1C[C@H](C)N(c2nc(N3CC(N(C)C)C3)nc3c(F)c(-c4c(C)ccc5ccn(C)c45)c(Cl)cc23)C[C@H]1C` [Compound 203, 1-((2R,5S)-4-((R)-6 chloro-7-(1,6-dimethyl-1H-indol-7-yl)-2-(3-(dimethylamino)azetidin-1-yl)-8-fluoroquinazolin-4-yl)-2,5-dimethylpiperazin-1-yl)prop-2-en-1-one] was tested. Which Binding % did it give?
Its Binding % is “+++ (+++ indicates binding activity greater than 80%)”.

For `C=CC(=O)N1C[C@H](C)N(c2nc(OCC(C)(C)N(C)C)nc3c(F)c(-c4c(C)ccc5cnn(C)c45)c(Cl)cc23)C[C@H]1C` [Compound 205, 1-((2R,5S)-4-(6-chloro-7-(1,6-dimethyl-1H-indazol-7-yl)-2-(2-(dimethylamino)-2-methylpropoxy)-8-fluoroquinazolin-4-yl)-2,5-dimethylpiperazin-1-yl)prop-2-en-1-one], which Binding % is on record?
The Binding % was “+++ (+++ indicates binding activity greater than 80%)”.

Which Binding % does the source give for `C=CC(=O)N1C[C@H](C)N(c2nc(N3CC(NC)C3)nc3c(F)c(-c4c(C)ccc5[nH]nc(C6CC6)c45)c(Cl)cc23)C[C@H]1C` [Compound 209, 1-((2R,5S)-4-((R)-6-chloro-7-(3-cyclopropyl-5-methyl-1H-indazol-4-yl)-8-fluoro-2-(3-(methylamino)azetidin-1-yl)quinazolin-4-yl)-2,5-dimethylpiperazin-1-yl)prop-2-en-1-one] here?
Its Binding % is “+++ (+++ indicates binding activity greater than 80%)”.

For `[2H]C([2H])([2H])N(C1CN(c2nc(N3C[C@@H](C)N(C(=O)C=C)C[C@@H]3C)c3cc(Cl)c(-c4c(C)ccc5cnn(C6CC6)c45)c(F)c3n2)C1)C([2H])([2H])[2H]` [Compound 213, 1-((2R,5S)-4-((S)-6-chloro-7-(1-cyclopropyl-6-methyl-1H-indazol-7-yl)-2-(3-(di-perdeuteromethylamino)azetidin-1-yl)-8-fluoroquinazolin-4-yl)-2,5-dimethylpiperazin-1-yl)prop-2-en-1-one], which Binding % is on record?
Its Binding % is “+ (+ indicates binding activity greater than 0% and up to 50%)”.

`[2H]C([2H])([2H])N(C1CN(c2nc(N3C[C@@H](C)N(C(=O)C=C)C[C@@H]3C)c3cc(Cl)c(-c4c(C)ccc5cnn(C6CC6)c45)c(F)c3n2)C1)C([2H])([2H])[2H]` [Compound 214, 1-((2R,5S)-4-((R)-6-chloro-7-(1-cyclopropyl-6-methyl-1H-indazol-7-yl)-2-(3-(di-perdeuteromethylamino)azetidin-1-yl)-8-fluoroquinazolin-4-yl)-2,5-dimethylpiperazin-1-yl)prop-2-en-1-one] was tested. Which Binding % did it give?
Its Binding % is “+++ (+++ indicates binding activity greater than 80%)”.

`C=CC(=O)N1C[C@H](C)N(c2nc(OCC(C)(C)N(C)C)nc3c(F)c(-c4c(C)ccc5cnn(C6CC6)c45)c(Cl)cc23)C[C@H]1C` [Compound 215, 1-((2R,5S)-4-(6-chloro-7-(1-cyclopropyl-6-methyl-1H-indazol-7-yl)-2-(2-(dimethylamino)-2-methylpropoxy)-8-fluoroquinazolin-4-yl)-2,5-dimethylpiperazin-1-yl)prop-2-en-1-one] was tested. Which Binding % did it give?
The Binding % was “+++ (+++ indicates binding activity greater than 80%)”.

`C=CC(=O)N1C[C@H](C)N(c2nc(OC3CCOC3)nc3c(F)c(-c4c(C)ccc5cnn(C)c45)c(Cl)cc23)C[C@H]1C` (stereo partly drawn) [Compound 216, 1-((2R,5S)-4-(6-chloro-7-(1,6-dimethyl-1H-indazol-7-yl)-8-fluoro-2-(tetrahydrofuran-3-yloxy)quinazolin-4-yl)-2,5-dimethylpiperazin-1-yl)prop-2-en-1-one] was tested. Which Binding % did it give?
Its Binding % is “++ (++ indicates binding activity from 50 to 80%)”.

For `C=CC(=O)N1C[C@H](C)N(c2nc(OC3CCCOC3)nc3c(F)c(-c4c(C)ccc5cnn(C)c45)c(Cl)cc23)C[C@H]1C` (stereo partly drawn) [Compound 225, 1-((2R,5S)-4-(6-chloro-7-(1,6-dimethyl-1H-indazol-7-yl)-8-fluoro-2-(tetrahydro-2H-pyran-3-yloxy)quinazolin-4-yl)-2,5-dimethylpiperazin-1-yl)prop-2-en-1-one], which Binding % is on record?
Its Binding % is “++ (++ indicates binding activity from 50 to 80%)”.

Which Binding % does the source give for `C=CC(=O)N1C[C@H](C)N(c2nc(OCC(C)(C)N(C)C)nc3c(F)c(-c4c(C)ccc5[nH]nc(C)c45)c(Cl)cc23)C[C@H]1C` [Compound 226, 1-((2R,5S)-4-(6-chloro-7-(3,5-dimethyl-1H-indazol-4-yl)-2-(2-(dimethylamino)-2-methylpropoxy)-8-fluoroquinazolin-4-yl)-2,5-dimethylpiperazin-1-yl)prop-2-en-1-one] here?
The Binding % was “++ (++ indicates binding activity from 50 to 80%)”.

`C=CC(=O)N1C[C@H](C)N(c2nc(N3CC(N(C)C)C3)nc3c(F)c(-c4c(F)ccc5ccn(C)c45)c(Cl)cc23)C[C@H]1C` [Compound 229, 1-((2R,5S)-4-(6-chloro-2-(3-(dimethylamino)azetidin-1-yl)-8-fluoro-7-(6-fluoro-1-methyl-1H-indol-7-yl)quinazolin-4-yl)-2,5-dimethylpiperazin-1-yl)prop-2-en-1-one] was tested. Which Binding % did it give?
The Binding % was “+++ (+++ indicates binding activity greater than 80%)”.
